This passage reports RP-LC retention time results from the METLIN SMRT retention time set (Domingo-Almenara et al. 2019).

The nature of this series: gradient 5% acetonitrile 3 min, to 50% in 2 min, to 85% in 15 min, held 3 min, 100 µL/min. Conditions: column: Zorbax Extend-C18 2.1 x 50 mm; eluents: water / acetonitrile, 0.1% formic acid. Summed up: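 The system's dead and dwell volumes were 40 μL and 900 μL, with a Zorbax Extend-C18 column (2.1 × 50 mm, 1.8 μm) run at 100 μL/min in water and acetonitrile containing 0.1% formic acid each. Pure standards were analyzed in mixtures of ~100 molecules by HPLC–quadrupole time-of-flight mass spectrometry in positive and negative ionization mode. Retention time was assigned from computationally picked, manually inspected adduct peaks.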
Compound `CCOC(=O)c1c(C)c(C(=O)CN(CC2CCCO2)C(=O)c2ccc(Cl)cc2)c(C)n1C` (stereo not given) yielded an RP-LC retention time of 987 s. As for `COc1ccc(CCc2nc3nccc(-c4ccccn4)n3n2)cc1`, the RP-LC retention time is 837 s.

In turn, `COc1ccc(-c2nc(C)cc(C)c2CNS(=O)(=O)c2cccc(F)c2)cc1` came in with an RP-LC retention time of 657 s. On to `O=C(NCc1cccc(F)c1)c1ccc2c(c1)Sc1ncccc1C(=O)N2C1CC1`, for which the RP-LC retention time came out at 823 s. The figure for `Cc1ccccc1NC(=O)NC1CCN(c2ccc(F)cc2)C1=O` (stereo not given) is 792 s; for `Cc1cccc(NC(=O)Cn2c(=O)n(-c3ccccc3)c3ncccc32)c1` it is 851 s; for `O=C(C1=CN(c2ccc(F)c(Cl)c2)c2cc(F)ccc2S1(=O)=O)N1CCOCC1` it is 775 s. The same measure for `CCn1c(=O)n(Cc2cccc(Cl)c2)c(=O)c2cnc(-c3ccc(OC)cc3)nc21`: 1340 s; for `CC(CCc1ccccc1)NC(=O)CN1CCCN(Cc2cccc(Cl)c2)S1(=O)=O` (stereo not given): 1120 s. `O=C(Nc1ccc(C(=O)N2CCN(c3ccccn3)CC2)cc1)C1=CSCCO1` had an RP-LC retention time of 611 s. Consider `CCOC(=O)c1c(C)c(CCC(=O)NC(C)c2ccc3c(c2)OCCO3)n(C)c1C` (stereo not given), for which the RP-LC retention time was 845 s. The same measure for `CCN1c2ccc(C)cc2C(=O)NC12CCN(C(=O)c1ccc(OC)c(OC)c1)CC2`: 744 s.

In the case of `CN(C)c1cccc(C(=O)Nc2cc(-c3ccsc3)no2)c1`, the RP-LC retention time came out at 927 s.

The compound `CCCn1cc(CCNC(=O)c2ccc(Cl)s2)c2cccnc21` came in with an RP-LC retention time of 833 s.

Regarding `Cc1cc(F)ccc1NC(=O)c1cn2c(n1)CSCC2`, the RP-LC retention time stood at 728 s. The same measure for `Cc1ncc2c(n1)CCN(C(=O)c1c(F)cccc1Cl)C2`: 663 s. `Cc1ccc(CN2N=C(C(=O)N3CCOCC3)S(=O)(=O)c3cc(Cl)ccc32)cc1` returned an RP-LC retention time of 896 s. The figure for `Cc1cn(C)c(CC(=O)NCc2ccc3c(c2)OCO3)c1C(=O)O` is 687 s; for `COc1ccc(-c2cc(C(=O)Nc3ccc(F)c(F)c3)sn2)cc1` it is 1180 s; for `C#CCOc1ccc2c(c1)c(-c1ccc(C(C)C)cc1)nc(=O)n2C(C)C` it is 1160 s.

In turn, `CCN1C(=O)C2(CCN(C(=O)c3ccnn3CC)CC2)c2ccccc21` gave an RP-LC retention time of 789 s. The same measure for `CCc1ccccc1NC(=O)N1CCCC1c1cc(C)on1` (stereo not given): 774 s.

With `COc1ccc(NC(=O)C2CCCN2S(=O)(=O)c2ccc3c(c2)CCCC(=O)N3)cc1OC` (stereo not given), the RP-LC retention time came to 688 s.

In turn, `COc1ccc(N2CC(c3noc(-c4cc(Cl)ccc4OC)n3)CC2=O)cc1` (stereo not given) yielded an RP-LC retention time of 963 s. `CCc1ccc(NS(=O)(=O)c2c(C)sc(C)c2-c2cc(C(F)(F)F)on2)cc1` showed an RP-LC retention time of 1240 s. `NC(=O)c1nsc2c(=O)n(CC(=O)NC3CCCC3)cnc12` came in with an RP-LC retention time of 596 s.

On to `CCOC(=O)c1nn(-c2ccc(F)cc2)c(=O)c2c(NC(=O)C3CCCCC3)scc12`, for which the RP-LC retention time came out at 1250 s. On to `CCN1C(=O)COc2cc(-c3noc(C(=O)NCCC(C)C)n3)ccc21`, for which the RP-LC retention time was found to be 979 s. `COc1ccc(NC(=O)CSc2nc3c(cc2C#N)C(=O)CC(C)(C)C3)c(OC)c1` gave an RP-LC retention time of 892 s. The same measure for `COc1ccc(-c2cn3c(CC(=O)N4CCc5ccccc54)csc3n2)cc1OC`: 748 s. On to `CC(=O)N1CCC(C(=O)N2CCCN(c3cc(-c4ccc(Cl)cc4)[nH]n3)CC2)CC1`, for which the RP-LC retention time amounted to 648 s. The same measure for `O=C(NCCC1CCN(C(=O)Nc2cc(F)cc(F)c2)CC1)C1CCCC1`: 860 s; for `O=C(Nc1ccc2c(c1)CN(S(=O)(=O)Cc1ccccc1)CCO2)C1CC1`: 844 s. On to `CCOC(=O)CCC(=O)N1CC(c2nc(C)no2)C1`, for which the RP-LC retention time was 603 s. The figure for `O=C(Cn1c(=O)n(C2CCCC2)c2ncccc21)Nc1ccc(Br)cc1` is 998 s; for `Cc1ccc2ncn(C3CCN(S(=O)(=O)c4ccc(F)cc4)CC3)c(=O)c2c1` it is 896 s; for `Cc1ccc(C)c(CNC(=O)c2cc3c(=O)n(C)c4ccccc4n3n2)c1` it is 966 s. The figure for `CS(=O)(=O)N1CCn2nc(-c3cccs3)cc21` is 681 s. Compound `O=C(CNC(=O)c1ccc(C(F)(F)F)cc1)Nc1nc2ccccc2[nH]1` had an RP-LC retention time of 688 s.

Regarding `Fc1ccc(F)c(-c2nc(-c3ccc4c(c3)ncn4CCN3CCCC3)no2)c1`, the RP-LC retention time was determined as 624 s. `COc1ccc(CCC(=O)N2CCN(c3nccn3-c3cccc(Cl)c3)CC2)cc1`: the RP-LC retention time is 617 s. In turn, `O=C(c1ccc([N+](=O)[O-])o1)N1CCN(Cc2nnnn2-c2ccc(F)cc2)CC1` yielded an RP-LC retention time of 755 s. The same measure for `COc1cc(=O)n2c(c1C(=O)Nc1cccc(SC)c1)CCCC2`: 734 s; for `CC(C)Cn1c(=O)c2cc(C(=O)NCCC3CCN(C(C)C)CC3)nn2c2ccccc21`: 694 s. The same measure for `Cn1cc(C(=O)NCCn2ncccc2=O)nn1`: 520 s; for `COc1ccc(-c2noc(-c3nn(-c4cccc(F)c4)ccc3=O)n2)cc1`: 874 s. Compound `CN1C(=O)c2cccn2CC1C(=O)NC1CCCCC1` (stereo not given) returned an RP-LC retention time of 681 s. The figure for `COC(=O)c1c(C)c(C(=O)C(C)N(C(=O)c2ccc(Cl)cc2)C2CC2)c(C)n1C` (stereo not given) is 1030 s; for `CCOC(=O)c1[nH]c(C)c(C(=O)C(C)N(C(=O)c2cccc(F)c2)C(C)C)c1C` (stereo not given) it is 883 s; for `COc1ccc(Nc2c(C(=O)N3CCCCC3C)cnc3nc(C)ccc23)cc1OC` (stereo not given) it is 598 s. With `CCC1(O)CCOC2(CCN(C(=O)C3CCCCCC3)CC2)C1` (stereo not given), the RP-LC retention time was found to be 823 s. The same measure for `O=C(Nc1cccc(F)c1)c1nnc(C(=O)N2CCC(C(=O)NC3CCCC3)CC2)s1`: 786 s; for `O=S(=O)(Nc1ccc(N2CCOCC2)cc1)C1CC1`: 623 s; for `CCn1c(SC)nnc1-c1nn(C)c2c1CN(C(=O)c1ccccc1)CC2`: 740 s. The figure for `COc1cccc(NC(=O)c2cn(CC3CCCO3)cc3c(=O)n(-c4ccccc4)nc2-3)c1` (stereo not given) is 997 s. The figure for `Cc1cn2c(S(=O)(=O)NC3CCCCCC3)c(C(C)C)nc2s1` is 1050 s; for `COC(=O)CNC(=O)N1CCC(N2C(=O)C3(CCCC3)C2c2scnc2C)CC1` (stereo not given) it is 653 s. Consider `COc1cc(OC)cc(C(=O)NC2CCN(c3cc(-c4ccccc4)[nH]n3)C2)c1` (stereo not given), for which the RP-LC retention time amounted to 710 s. The figure for `Cc1cc2nnc(SCC(=O)c3ccc4c(c3)OCO4)n2c2ccccc12` is 793 s; for `Cc1cc(C)cc(NC(=O)Cc2cn(C)c3ncccc23)c1` it is 689 s; for `Cc1cc(C(=O)NCCN2CCOCC2)nc2cc(-c3ccccn3)nn12` it is 693 s.

`Cc1cccc(-c2ccc(N3CCCC(C(=O)NC4CCCC4)C3)nn2)c1` (stereo not given) registered an RP-LC retention time of 708 s.

Compound `Cc1nc2cc(-c3noc(-c4ccc(C#N)cc4)n3)ccc2n(C(C)C)c1=O` showed an RP-LC retention time of 929 s. For the compound `CCN1CCN(C(=O)C2CCCN(c3nnc4ccc(C(F)(F)F)cn34)C2)CC1` (stereo not given), the RP-LC retention time was found to be 567 s. The same measure for `COc1ccc2c(c1)CCc1sc(NC(=O)c3ccc(OC)c(Br)c3)nc1-2`: 1210 s. The figure for `Cc1ccc2[nH]cc(CCNC(=O)c3ccc(Cl)cc3Cl)c2c1` is 957 s; for `CCc1noc(C)c1-c1[nH]c2ccccc2c1C(=O)C(=O)N(C)C` it is 714 s. The figure for `CCCCOc1ccc(-c2csc(NC(=O)c3cc4cccc(OC)c4oc3=O)n2)cc1` is 897 s; for `O=C(Nc1ccccc1)C1CCN(C(=O)c2ncn3c2COC(c2ccc(F)cc2)C3)CC1` (stereo not given) it is 791 s; for `O=C([C@H]1C[C@@H](F)CN1C(=O)Nc1cccc(Cl)c1)N1CCOCC1` it is 653 s. For `O=C(Nc1cccc2ccc(-n3ccnc3)nc12)c1ccccc1C(F)(F)F`, the RP-LC retention time came out at 638 s.

Consider `COc1ccc(NS(=O)(=O)c2cc3n(c2)CCN(C)C3=O)cc1`, for which the RP-LC retention time stood at 657 s. The figure for `COc1ccc(-c2cc3c(=O)n(CC(=O)Nc4ccc(C)c(F)c4)ccn3n2)cc1OC` is 780 s. `O=C(NCC#CCN1CCc2ccccc2C1)Nc1cccs1` had an RP-LC retention time of 557 s.

Turning to `Cc1cc(C)n(-c2ccc(N3CCC(C(=O)NCc4ccc5c(c4)OCO5)CC3)nn2)n1`, the RP-LC retention time stood at 642 s. `CC(=O)N1CCc2cc(S(=O)(=O)NCCn3nc(-c4cccs4)ccc3=O)ccc21` returned an RP-LC retention time of 650 s. Take `Cc1cc(NC(=O)N2CCCC(C)(C(=O)NCc3ccccc3C)C2)ccc1Br` (stereo not given): the RP-LC retention time is 1100 s.

Turning to `CN(CCC#N)C(=O)Cn1nc(Cc2cccnc2)c2ccccc2c1=O`, the RP-LC retention time came out at 563 s. The figure for `COc1ccc(C)cc1NC(=O)N1c2ccccc2CC1c1nc(C2CC2)no1` (stereo not given) is 1150 s. In turn, `O=C(NC1CC1)c1ccc(OCC2CCCN2C(=O)c2cc(F)ccc2F)cc1` (stereo not given) registered an RP-LC retention time of 785 s.
